Source: ChEMBL document CHEMBL4665719, “Development of SKI-349, a dual-targeted inhibitor of sphingosine kinase and microtubule polymerization” (Bioorg Med Chem Lett, 2020)
pIC50: −log10 of the molar value. Calls of active or inactive are those of the source. The calls are words filed in the database; no cut-off is given here.

How the values were obtained:
Tubulin (Homo sapiens) [1] = target: T1, Tubulin (Homo sapiens) (UniProt P68371+Q9H4B7+P0DPH7+P68366+Q13509+Q71U36+P04350+Q3ZCM7+P07437+P68363+Q9BQE3+Q6PEY2+Q13885+Q9BVA1+Q9BUF5); assay: Inhibition of tubulin polymerization in human MOLM-13 cells assessed as disruption of microtubule network at 100 nM after 18 hrs by FITC-staining based flow cytometry analysis; format: cell-based
[2] = target: T2, Sphingosine kinase 1/2 (Homo sapiens) (UniProt Q9NRA0+Q9NYA1); assay: Inhibition of SPHK1/SPHK2 in human HL-60 cells assessed as induction of apoptosis by measuring spindle assembly checkpoint arrest at 20 nM after 16 hrs by Western blot analysis; format: cell-based
[3] = target: T2, Sphingosine kinase 1/2 (Homo sapiens); assay: Inhibition of SPHK1/SPHK2 in human HL-60 cells assessed as induction of apoptosis by measuring spindle assembly checkpoint arrest at 3 nM after 16 hrs by Western blot analysis; format: cell-based
Tubulin (Homo sapiens) [4] = target: T1, Tubulin (Homo sapiens); assay: Inhibition of tubulin polymerization in human MOLM-13 cells assessed as disruption of microtubule network at 200 nM after 18 hrs by FITC-staining based flow cytometry analysis; format: cell-based
[5] = target: T2, Sphingosine kinase 1/2 (Homo sapiens); assay: Inhibition of SPHK1/SPHK2 in human HL-60 cells assessed as C18:0 ceramide level assessed per 10^6 cells at 5 uM after 24 hrs by LC-ESI/MS analysis (reference value: 1.6 +/- 0.2 pmol); format: cell-based
HL-60 = assay: Cytotoxicity against human HL-60 cells assessed as reduction in cell viability after 48 hrs by MTT assay; format: functional, cell-based; conditions: HL-60, 48 h
[6] = target: T2, Sphingosine kinase 1/2 (Homo sapiens); assay: Inhibition of SPHK1/SPHK2 in human HL-60 cells assessed as C16:0 ceramide level assessed per 10^6 cells at 5 uM after 24 hrs by LC-ESI/MS analysis (reference value: 33.5 +/- 4.1 pmol); format: cell-based
[7] = Cytotoxicity against human HL60/VCR cells assessed as reduction in cell viability after 48 hrs by MTT assay; format: functional, cell-based
[8] = target: Cyclin-dependent kinase 1 (Homo sapiens) (UniProt P06493); assay: Activation of CDK1 in human HL60/VCR cells assessed as induction of Bcl2 phosphorylation at Ser70 residue at 5 uM after 24 hrs in presence of Ro-3306 by Western blot analysis; format: cell-based
Sphingosine kinase 1 = Sphingosine kinase 1 (Homo sapiens, UniProt Q9NYA1); assay: Inhibition of recombinant His6x-tagged human SphK1 expressed in HEK293 cells assessed as reduction in S1P formation using D-erythro-sphingosine as substrate by […]
[9] = target: T2, Sphingosine kinase 1/2 (Homo sapiens); assay: Inhibition of SPHK1/SPHK2 in human HL-60 cells assessed as sphingosine level assessed per 10^6 cells at 5 uM after 24 hrs by LC-ESI/MS analysis (reference value: 18.3 +/- 3.5 pmol); format: cell-based
[10] = target: Cyclin-dependent kinase 1 (Homo sapiens) (UniProt P06493); assay: Activation of CDK1 in human HL60/VCR cells assessed as activation of caspase 7 at 5 uM after 24 hrs in presence of Ro-3306 by Western blot analysis; format: cell-based
[11] = target: Cyclin-dependent kinase 1 (Homo sapiens) (UniProt P06493); assay: Activation of CDK1 in human HL-60 cells assessed as activation of caspase 7 at 5 uM after 24 hrs in presence of Ro-3306 by Western blot analysis; format: cell-based
[12] = target: Cyclin-dependent kinase 1 (Homo sapiens) (UniProt P06493); assay: Activation of CDK1 in human HL-60 cells assessed as induction of Bcl2 phosphorylation at Ser70 residue at 5 uM after 24 hrs in presence of Ro-3306 by Western blot analysis; format: cell-based
[13] = target: T2, Sphingosine kinase 1/2 (Homo sapiens); assay: Inhibition of SPHK1/SPHK2 in human HL-60 cells assessed as sphingosine-1-phosphate level assessed per 10^6 cells at 5 uM after 24 hrs by LC-ESI/MS analysis (reference value: 3.1 +/- 0.3 pmol); format: cell-based

T2 sequence (Q9NRA0 whole entry, looked up): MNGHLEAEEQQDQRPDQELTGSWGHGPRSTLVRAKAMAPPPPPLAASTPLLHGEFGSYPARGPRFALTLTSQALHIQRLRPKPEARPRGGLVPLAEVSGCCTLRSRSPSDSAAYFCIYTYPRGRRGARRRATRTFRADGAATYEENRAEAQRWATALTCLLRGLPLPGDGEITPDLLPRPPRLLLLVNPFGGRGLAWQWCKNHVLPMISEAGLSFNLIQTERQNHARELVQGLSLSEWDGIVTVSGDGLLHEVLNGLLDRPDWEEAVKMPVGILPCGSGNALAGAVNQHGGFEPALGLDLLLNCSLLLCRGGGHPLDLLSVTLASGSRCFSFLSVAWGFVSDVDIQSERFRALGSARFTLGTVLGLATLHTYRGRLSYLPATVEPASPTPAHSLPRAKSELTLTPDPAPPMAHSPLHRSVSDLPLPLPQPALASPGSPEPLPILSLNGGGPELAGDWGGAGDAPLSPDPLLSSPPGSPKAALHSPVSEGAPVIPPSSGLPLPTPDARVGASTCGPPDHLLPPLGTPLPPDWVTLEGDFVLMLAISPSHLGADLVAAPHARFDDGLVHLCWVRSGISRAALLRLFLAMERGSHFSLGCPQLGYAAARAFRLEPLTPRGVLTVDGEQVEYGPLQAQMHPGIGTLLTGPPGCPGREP
T2 sequence (Q9NYA1 whole entry, looked up): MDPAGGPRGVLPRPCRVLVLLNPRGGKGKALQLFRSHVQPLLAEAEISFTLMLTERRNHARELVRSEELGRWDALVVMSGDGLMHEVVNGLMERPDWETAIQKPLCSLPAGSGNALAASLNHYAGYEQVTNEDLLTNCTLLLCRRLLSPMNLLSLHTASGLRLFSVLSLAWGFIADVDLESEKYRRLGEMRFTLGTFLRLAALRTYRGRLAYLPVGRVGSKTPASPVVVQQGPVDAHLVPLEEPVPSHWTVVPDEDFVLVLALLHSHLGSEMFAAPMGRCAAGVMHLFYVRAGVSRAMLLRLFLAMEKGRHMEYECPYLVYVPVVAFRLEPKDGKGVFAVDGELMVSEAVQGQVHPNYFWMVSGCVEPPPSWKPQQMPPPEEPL
Chain of Cyclin-dependent kinase 1 (Homo sapiens) (P06493 whole entry, looked up): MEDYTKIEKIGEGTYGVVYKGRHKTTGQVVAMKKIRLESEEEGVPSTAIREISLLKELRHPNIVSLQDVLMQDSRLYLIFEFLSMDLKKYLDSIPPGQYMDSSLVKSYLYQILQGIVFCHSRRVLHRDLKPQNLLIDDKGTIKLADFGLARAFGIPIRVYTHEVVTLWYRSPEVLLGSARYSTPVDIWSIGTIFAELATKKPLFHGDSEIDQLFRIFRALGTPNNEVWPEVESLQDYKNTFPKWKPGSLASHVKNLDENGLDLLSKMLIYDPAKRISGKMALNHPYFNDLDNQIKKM
Chain of Sphingosine kinase 1 (Q9NYA1 whole entry): as the sequence (Q9NYA1 whole entry, looked up) above

## CC(=O)O[C@H]1C(=O)[C@@]2(C)[C@H]([C@H](OC(=O)c3ccccc3)[C@]3(O)C[C@H](OC(=O)[C@H](O)[C@@H](NC(=O)c4ccccc4)c4ccccc4)C(C)=C1C3(C)C)[C@]1(OC(C)=O)CO[C@@H]1C[C@@H]2O
Tubulin (Homo sapiens) [1]
  inhibition: Active

## CC[C@@H]1C(=O)N(C)c2cnc(Nc3ccc(C(=O)N[C@H]4CC[C@H](N5CCN(CC6CC6)CC5)CC4)cc3OC)nc2N1C(C)C
[2]
  Activity: Active

## Cc1ccc(C(=O)N(CCCN)[C@@H](c2nc3cc(Cl)ccc3c(=O)n2Cc2ccccc2)C(C)C)cc1
[3]
  Activity: Active

## CC[C@]1(O)C[C@H]2CN(CCc3c([nH]c4ccccc34)[C@@](C(=O)OC)(c3cc4c(cc3OC)N(C=O)[C@H]3[C@@](O)(C(=O)OC)[C@H](OC(C)=O)[C@]5(CC)C=CCN6CC[C@]43[C@@H]65)C2)C1
Tubulin (Homo sapiens) [4]
  inhibition: Active

## COc1ccc(-c2cc(C(=O)N/N=C(\C)c3ccc(OC)c(OC)c3)[nH]n2)cc1
[5]
  Activity: 4.8 pmol
HL-60
  pIC50: 6.33
[6]
  Activity: 84 pmol
[7]
  pIC50: 5.96
[8]
  Activity: inactive
Sphingosine kinase 1
  pIC50: 5.52
[9]
  Activity: 28.7 pmol
[10]
  Activity: inactive
[11]
  Activity: inactive
[12]
  Activity: inactive
[13]
  Activity: 3.2 pmol
